Results from article PMC11642940, “A New Demand for Improved Selectivity and Potency of Cyanine Dyes as Antiproliferative Agents Against Colorectal Cancer Cells” (Molecules, 2024).
Like-named read-outs stand apart in the source and are kept apart here.

Assays:
[1] = test system: PC-3 prostate adenocarcinoma cells; assay: MTT cell viability assay, PC-3; settings: for viability at 10 µM: read-out: cell viability percentage in relation to control, PC-3; for SI PC-3 (selectivity index versus NHDF): PC-3 versus NHDF
Description: (§1) To evaluate the anticancer potential of monomethine cyanine dyes 1–12, a cell proliferation study was conducted using the 3-(4,5-dimethylthiazol-2-yl)-2,5-diphenyltetrazolium bromide (MTT) assay. For this preliminary evaluation, a concentration of 10 µM for each dye was tested, with the well-established chemotherapy agent 5-fluorouracil (5-FU) serving as a positive control. The assay included normal human dermal fibroblasts (NHDF) as non-tumor cells, alongside tumor cell lines from colorectal (Caco-2), prostate (PC-3), and breast (MCF-7) adenocarcinomas.
(§2) The cell lines used in this study (Caco-2, MCF-7, PC-3, and NHDF) were obtained from the American Type Culture Collection (ATCC, Manassas, VA, USA) and cultured in 75 cm^2 culture flasks at 37 °C in a humidified atmosphere with 5% CO2 in a LEEC Culture Safe Precision CO2 Incubator. PC-3 cells were grown in Roswell Park Memorial Institute (RPMI) medium supplemented with 10% of inactivated Fetal Bovine Serum (FBS) and 1% of an antibiotic mixture (Sp; 10,000 U/mL of penicillin G and […] of streptomycin). MCF-7 and Caco-2 cell lines were both cultured using Dulbecco’s Modified Eagle Medium (DMEM). However, the medium for MCF-7 cells was complemented with 10% of inactivated FBS and 1% of antibiotic/antimycotic mixture (Ab; 10,000 U/mL of penicillin G, […] of streptomycin and 25 µg/mL of amphotericin B), and the medium for Caco-2 cells was supplemented with 20% of inactivated FBS and 1% of Sp. Finally, RPMI medium supplemented with 10% FBS, 2 mM of L-glutamine, 10 mM of 4-(2-hydroxyethyl)-1-piperazineethanesulfonic acid (HEPES), 1 mM of sodium pyruvate, and 1% of Ab was used to culture NHDF cells. The culture media were renewed every two to three days until near confluence was achieved. Then, cells were detached using a solution of 0.125 g/L of trypsin and 0.02 g/L of ethylenediaminetetracetic acid (EDTA), counted by the trypan blue method, resuspended, and adequately seeded to continue the culture in 75 cm^2 flasks or for the experiments described below. All manipulations were performed in a Labculture Class II A2 Biological Safety Cabinet.
(§3) After trypsinization, cells were seeded in 96-well culture plates (100 µL; 2 × 10^4 cells/mL), and after 48 h (for adherence), they were incubated with the compounds under study in the absence of light for a duration of 72 h. Then, the medium was removed, and fresh incomplete culture medium (without FBS and Ab or Sp) and MTT solution [5 mg/mL in phosphate buffer saline (PBS)] were added to each well, followed by 4 h of incubation. After this, the medium containing MTT was removed and DMSO was added to dissolve formazan crystals. The absorbance of each well at 570 nm was determined using a microplate spectrophotometer Bio-Rad (Hercules, CA, USA) xMark. Untreated cells were considered the negative control, and 5-FU, a clinically used drug, was considered the positive control. For data analysis, the relative cell proliferation relative to the negative control cells was calculated. For each cell viability study, at least two independent assays in quadruplicate were performed. Increasing concentrations of the compounds between 0.001 and 100 μM were used to determine the IC50 values.

[2] = test system: MCF-7 breast adenocarcinoma cells; assay: MTT cell viability assay, MCF-7; settings: for viability at 10 µM / IC50: Homo sapiens, MCF7, 72 h; for viability at 10 µM: read-out: cell viability percentage in relation to control, MCF-7; for IC50: read-out: IC50 MCF-7, MCF-7, 72 h incubation, MTT; for SI MCF-7 (selectivity index versus NHDF): MCF-7 versus NHDF, 72 h
Description: as §1, §2, §3

[3] = MTT cell viability assay, NHDF; type: cell-based, human; settings: human, 10 µM, 72 h, mean ± SD, read-out: cell viability percentage in relation to control, NHDF
Description: (§4) The cell lines used in this study (Caco-2, MCF-7, PC-3, and NHDF) were obtained from the American Type Culture Collection (ATCC, Manassas, VA, USA) and cultured in 75 cm^2 culture flasks at 37 °C in a humidified atmosphere with 5% CO2 in a LEEC Culture Safe Precision CO2 Incubator. PC-3 cells were grown in Roswell Park Memorial Institute (RPMI) medium supplemented with 10% of inactivated Fetal Bovine Serum (FBS) and 1% of an antibiotic mixture (Sp; 10,000 U/mL of penicillin G and 100 mg/mL of streptomycin). MCF-7 and Caco-2 cell lines were both cultured using Dulbecco’s Modified Eagle Medium (DMEM). However, the medium for MCF-7 cells was complemented with 10% of inactivated FBS and 1% of antibiotic/antimycotic mixture (Ab; 10,000 U/mL of penicillin G, 100 mg/mL of streptomycin and 25 µg/mL of amphotericin B), and the medium for Caco-2 cells was supplemented with 20% of inactivated FBS and 1% of Sp. Finally, RPMI medium supplemented with 10% FBS, 2 mM of L-glutamine, 10 mM of 4-(2-hydroxyethyl)-1-piperazineethanesulfonic acid (HEPES), 1 mM of sodium pyruvate, and 1% of Ab was used to culture NHDF cells. The culture media were renewed every two to three days until near confluence was achieved. Then, cells were detached using a solution of 0.125 g/L of trypsin and 0.02 g/L of ethylenediaminetetracetic acid (EDTA), counted by the trypan blue method, resuspended, and adequately seeded to continue the culture in 75 cm^2 flasks or for the experiments described below. All manipulations were performed in a Labculture Class II A2 Biological Safety Cabinet.

[4] = test system: normal human dermal fibroblasts (NHDF); assay: MTT cell viability assay, NHDF; type: cell-based; settings: Homo sapiens, NHDF, read-out: IC50 NHDF
Description: as §4

[5] = test system: Caco-2 colorectal adenocarcinoma cells; assay: MTT cell viability assay, Caco-2; settings: Homo sapiens, Caco-2, 72 h; for IC50: read-out: IC50 Caco-2; for viability at 10 µM: read-out: cell viability percentage in relation to control, Caco-2
Description: as §1, §2, §3

[6] = MTT cell viability assay, Caco-2; settings: human
Description: as §1, §2, §3

Caco-2 cells [7] = assay: Apoptosis (sub-G1 events) by PI staining and flow cytometry; type: cell-based, human; settings: Caco-2, 600 mM, incubated for 24 h
Description: Given that apoptosis is a common programmed mechanism regulating cell death, characterized by DNA fragmentation and an increase in sub-G1 events, we employed the method described by Riccardi and Nicolleti to assess potential apoptosis induction using flow cytometry. Cyanine dyes 5 and 10 were tested at concentrations of 1 µM and 10 µM, respectively. As positive controls for apoptosis, 600 mM sorbitol and 10 µM 5-FU were used, with untreated cells serving as the negative control. […] In contrast, dye 10 induced a slight increase in apoptosis, reaching 1.7%. […] Apoptotic bodies were more evident in cells treated with dye 5 compared to dye 10, which is further supported by the slightly higher apoptosis induction in this assay.
Apoptosis (sub-G1 events) and cell cycle distribution were evaluated by propidium iodide (PI) staining and flow cytometry, as described by Riccardi and Nicolleti. […] Untreated cells were used as the negative control, and sorbitol and 5-FU were used as positive controls. After incubation, the supernatant was collected in a centrifuge tube, cells were washed with PBS, trypsinized and wells were once again washed with PBS. This cell suspension was maintained on ice, centrifugated at 300 g for 5 min, and then the pellet was resuspended in 0.5 mL of PBS. Cells were fixed by adding 4.5 mL of 70% ethanol cooled at −20 °C on ice and were stored at −20 °C for a period ranging from one to a few days. On the day of flow cytometry analysis, PBS was added to the fixed cell tubes, followed by centrifugation and removal of the supernatant. The pellet was resuspended in 0.5 mL of PBS and 0.5 mL of DNA extraction solution (192 mL of 0.2 M sodium phosphate and 8 mL of […], pH 7.8). After incubation for 5 min, the cells were once again centrifuged, the supernatant was removed, and the pellet was resuspended in 0.3 mL of staining solution (20 µg/mL of PI and 0.2 mg/mL of DNase-free RNase in PBS). Using a FACSCalibur flow cytometer (Becton Dickinson, Franklin Lakes, NJ, USA) with a 488 nm laser line, a minimum of 20,000 events were acquired and recorded using the BD CellQuestTM Pro 4.0.2 software, and analyzed with FlowJo 10.5.3 software. To exclude debris and necrotic cells, events with a lower diameter (forward scatter; FCS) and PI fluorescence (FL3) than the hypodiploid apoptotic cells were eliminated (Figures S1 and S2). Two independent experiments were performed. A Student’s t-test was performed to evaluate the statistical significance of the results.

Caco-2 cells [8] = assay: Caco-2 morphological analysis (optical microscopy); settings: 24 h
Description: Sorbitol and 5-FU were used as positive controls, while untreated cells served as the negative control.
Caco-2 cells near confluency were trypsinized, counted, and then seeded at 3 × 10^4 cells/mL (3 mL) in 35 mm cell culture dishes previously treated for tissue culture. After cell adherence (48 h), they were incubated with solutions under study for 72 h in the absence of light. The cellular morphology was verified every 24 h using a CKX41 SF inverted microscope (Olympus, Tokyo, Japan) with 10, 20, or 40× objectives. A DC6 V digital camera (Olympus, Tokyo, Japan) coupled to the microscope was used to capture cell imaging. The morphology of cells in the presence or absence of treatments was compared.

[9] = normal human dermal fibroblasts (NHDF)
[10] = 72 h incubation, MTT, absence of light
[11] = Caco-2, SI Caco-2 (selectivity index, cancer versus non-cancer cell line NHDF), Caco-2 versus NHDF, 72 h
[12] = Homo sapiens, 72 h, read-out: IC50 PC-3, PC-3, 72 h incubation, MTT

Structure (SMILES)	viability at 10 µM ([1]; Homo sapiens, 72 h) [%]	viability at 10 µM [2] [%]	viability at 72 h, 10 µM [3, 9] [%]	IC50 [4, 10] [nM]	IC50 [5] [nM]	viability at 10 µM [5] [%]	selectivity ratio at 72 h [6, 11]	melting point [°C]	IC50 [1, 12] [nM]	SI PC-3 (selectivity index versus NHDF) ([1]; 72 h)	IC50 ([1]; read-out: IC50 PC-3, PC-3, 72 h incubation, MTT) [nM]	IC50 [2] [nM]	SI MCF-7 (selectivity index versus NHDF) [2]	viability at 72 h, 10 µM [3] [%]	IC50 ([4]; 72 h) [nM]	selectivity ratio at 72 h ([6]; Caco-2)	apoptosis (sub-G1 events), % of cells (Caco-2 cells [7]) [%]	morphological changes of Caco-2 cells (Caco-2 cells [8])
CCCCCN1C(=Cc2sc3ccccc3[n+]2C)Sc2ccccc21.[I-] [Dye 1, 3-Methyl-2-((3-pentylbenzo[d]thiazol-2(3H)-ylidene)methyl)benzo[d]thiazol-3-ium iodide]	0.56 ± 0.12	0.87 ± 1.05	0.84 ± 0.26	550	360	1.37 ± 0.08	1.5	254 to 258										
CCCCCCCCCCN1C(=Cc2sc3ccccc3[n+]2C)Sc2ccccc21.[I-] [Dye 2, 3-Methyl-2-((3-decylbenzo[d]thiazol-2(3H)-ylidene)methyl)benzo[d]thiazol-3-ium iodide]	0.62 ± 0.1	0.62 ± 0.79	0.13 ± 0.43	270	240	1.09 ± 0.47	1.1	217 to 218										
CN1C(=Cc2sc3ccccc3[n+]2C)Oc2ccccc21.Cc1ccc(S(=O)(=O)[O-])cc1 [Dye 3, 3-Methyl-2-((3-methylbenzo[d]oxazol-2(3H)-ylidene)methyl)benzo[d]thiazol-3-ium 4-methylbenzenesulfonate]	1.81 ± 0.31	3.04 ± 1.08	23.9 ± 3.05	7530	90	5.81 ± 0.8	81.2		480	17.2	430							
CN1C(=Cc2n(C)c3ccccc3[n+]2C)Sc2ccccc21.[I-] [Dye 4, 1,3-Dimethyl-2-((3-methylbenzo[d]thiazol-2(3H)-ylidene)methyl)-1H-benzo[d]imidazol-3-ium iodide]	4.09 ± 0.61	21.6 ± 1.33	23.1 ± 1.91	7930	230	7.15 ± 1.08	33.6	270 to 272	2850	2.8								
CN1C(=Cc2sc3ccccc3[n+]2C)C=Cc2ccccc21 [Dye 6, 3-Methyl-2-((1-methylquinolin-2(1H)-ylidene)methyl)benzo[d]thiazol-3-ium 4-methylbenzenesulfonate]	4.98 ± 1.62	2.49 ± 0.32	4.28 ± 1.24	790	270	1.93 ± 0.78	2.9											
CCN1C(=Cc2sc3ccc(NC(C)=O)cc3[n+]2CC)Sc2ccccc21.Cc1ccc(S(=O)(=O)[O-])cc1 [Dye 7, 5-Acetamido-3-ethyl-2-((3-ethylbenzo[d]thiazol-2(3H)-ylidene)methyl)benzo[d]thiazol-3-ium 4-methylbenzenesulfonate]	7.97 ± 4	11.8 ± 4.3	29 ± 4.76	11600	140	9.89 ± 1.38	80.5		3560	3.3		380	30.2					
CCN1C(=Cc2sc3ccc(N)cc3[n+]2CC)Sc2ccccc21 [Dye 8, 5-Amino-3-ethyl-2-((3-ethylbenzo[d]thiazol-2(3H)-ylidene)methyl)benzo[d]thiazol-3-ium iodide]	4.12 ± 1.71	6.18 ± 1.48	5.52 ± 0.69	950	740	5.21 ± 0.89	1.3											
CCN1C(=Cc2n(CC)c3ccc([N+](=O)[O-])cc3[n+]2CC)Sc2ccccc21.[I-] [Dye 9, 1,3-Diethyl-2-((3-ethylbenzo[d]thiazol-2(3H)-ylidene)methyl)-5-nitro-1H-benzo[d]imidazol-3-ium iodide]	39.5 ± 7.97	52.9 ± 8.99	38.2 ± 4.27	24500	1400	16.4 ± 0.81	17.5	219 to 220										
CCN1C(=Cc2sc3cc(N)ccc3[n+]2CC)Sc2ccccc21.[I-] [Dye 11, 6-Amino-3-ethyl-2-((3-ethylbenzo[d]thiazol-2(3H)-ylidene)methyl)benzo[d]thiazol-3-ium iodide]	10.5 ± 4.24	7.65 ± 2.8	16.1 ± 2.46	3000	170	9.6 ± 1.47	17.1		2100	1.4		330	9.0					
CN1C=C/C(=C/c2ccc3ccccc3[n+]2C)c2ccccc21 [Dye 12, 1-Methyl-4-((1-methylquinolin-2(1H)-ylidene)methyl)quinolin-1-ium 4-methylbenzenesulfonate]	9.02 ± 3.29	4.81 ± 1.56			730	10.7 ± 0.43								5.72 ± 1.91	630	0.9		
OC[C@@H](O)[C@@H](O)[C@H](O)[C@@H](O)CO [sorbitol, reference compound]																	37.9	marked increase in apoptotic bodies
